From paper PMC3726336, “Product inhibition of cellulases studied with ^14C-labeled cellulose substrates” (Biotechnology for Biofuels, 2013)
Where two headings read alike, the source gives them in different places.

Columns and labels:
[1] = target: TaCel7A (Thermoascus aurantiacus, UniProt A7WNU2); test: Inhibition of synergistic hydrolysis of 14C-BC by TaCel7A (supplemented with EG TrCel5A); type: biochemical; conditions: 14C-BC substrate, read-out: IC50 for cellobiose
Procedure: To study the cellobiose inhibition of GH7 CBHs, the synergistic hydrolysis of ^14C-BC in the presence of added cellobiose was followed (Figure 3, Additional file 1: Figures S1 and S2). Because the cellobiose inhibition of the EG TrCel5A is much weaker than that of GH7 CBHs, the inhibition of synergistic hydrolysis apparently reflects the inhibition of CBH. The strength of cellobiose inhibition was analyzed using plots of (DCB/DCB=0) versus [cellobiose], where DCB and DCB=0 represent the degree of conversion of ^14C-BC in the presence and absence of cellobiose, respectively (Figure 4, Additional file 1: Figure S3). […]
where [CB] is the concentration of cellobiose; [^14CBC] is the concentration of ^14C-BC used in the experiment; and C1, C2 and H are empirical constants. Equation 5 differs from Equation 1 by the presence of constant H. H was included to improve the fit and is a constant that accounts for the background radioactivity (the degree of conversion that is independent of CBH). The degree of conversion resulting from the activity of the EG was measured in a separate experiment (Additional file 1: Figure S4) and was subtracted from the degree of conversion resulting from the synergistic hydrolysis. […] Provided with the values of C1, C2 and H, the value of IC50 was calculated as follows: […]

[2] = target: T1, TrCel7A (Trichoderma reesei, UniProt P62694); set-up: method as in PMID 22733813; conditions: read-out: IC50 for cellobiose, 14C-BC substrate, 25°C; cited from earlier work
T1 construct: TrCel7A was purified from the culture filtrate of Tr QM 9414 as described previously; made in house; host or cells: Trichoderma reesei QM 9414 culture filtrate (native producer)

[3] = target: CtCel6A (Chaetomium thermophilum, UniProt G0SD43); test: Inhibition of hydrolysis of 14C-BMCC by CtCel6A; type: biochemical; conditions: cellobiose; hydrolysis of 14C-BMCC by CtCel6A at 50°C
Text: Here, we characterized the cellobiose and glucose inhibition of TrCel6A and its thermophilic counterpart, CtCel6A [9, 63]. First, the cellobiose inhibition of the synergistic hydrolysis of ^14C-BC by TrCel6A and TrCel5A was studied (Figure 7A). As TrCel6A was less sensitive to cellobiose inhibition than TrCel7A, the contribution of the cellobiose released during hydrolysis was not significant, and an average (DCB/DCB=0) over all time points was used in plotting (DCB/DCB=0) versus [cellobiose] (Figure 7D). No significant systematic variation of DCB/DCB=0 depending on hydrolysis time was observed. As in the case of GH7 CBHs, the IC50 value was found using Equations 5 and 6. Because the IC50 value for synergistic hydrolysis (Table 3) was of the same order as the apparent Ki value reported for TrCel5A [31], we further tested the inhibition of individual TrCel6A. BC is not a good substrate for TrCel6A, but its acid-treated derivative, BMCC, is readily degraded by the enzyme. Therefore, we prepared ^14C-BMCC by the heterogeneous acid hydrolysis of ^14C-BC. […]
GH6 CBHs were assessed by observing the hydrolysis of ^14C-BMCC. ^14C-BMCC (0.25 g l^-1) was incubated (with shaking at 350 rpm) with CBH (0.25 μM) and N188BG (0.06 μM) in 50 mM sodium acetate buffer, pH 5.0, containing BSA (0.1 g l^-1). […]

TaCel7A, sequence (A7WNU2 entry or part of it): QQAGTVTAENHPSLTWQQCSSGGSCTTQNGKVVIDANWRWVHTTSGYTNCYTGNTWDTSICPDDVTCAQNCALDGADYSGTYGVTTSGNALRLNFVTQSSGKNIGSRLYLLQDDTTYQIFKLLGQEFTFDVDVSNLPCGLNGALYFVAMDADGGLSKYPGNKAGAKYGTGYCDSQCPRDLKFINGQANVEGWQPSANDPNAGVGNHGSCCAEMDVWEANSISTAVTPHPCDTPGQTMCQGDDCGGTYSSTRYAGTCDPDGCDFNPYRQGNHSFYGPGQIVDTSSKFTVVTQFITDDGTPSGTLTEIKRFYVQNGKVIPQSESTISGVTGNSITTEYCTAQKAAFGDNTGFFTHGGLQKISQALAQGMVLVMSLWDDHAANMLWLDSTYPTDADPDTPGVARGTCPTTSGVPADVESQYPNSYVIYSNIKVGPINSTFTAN
CtCel6A, sequence (G0SD43 entry or part of it): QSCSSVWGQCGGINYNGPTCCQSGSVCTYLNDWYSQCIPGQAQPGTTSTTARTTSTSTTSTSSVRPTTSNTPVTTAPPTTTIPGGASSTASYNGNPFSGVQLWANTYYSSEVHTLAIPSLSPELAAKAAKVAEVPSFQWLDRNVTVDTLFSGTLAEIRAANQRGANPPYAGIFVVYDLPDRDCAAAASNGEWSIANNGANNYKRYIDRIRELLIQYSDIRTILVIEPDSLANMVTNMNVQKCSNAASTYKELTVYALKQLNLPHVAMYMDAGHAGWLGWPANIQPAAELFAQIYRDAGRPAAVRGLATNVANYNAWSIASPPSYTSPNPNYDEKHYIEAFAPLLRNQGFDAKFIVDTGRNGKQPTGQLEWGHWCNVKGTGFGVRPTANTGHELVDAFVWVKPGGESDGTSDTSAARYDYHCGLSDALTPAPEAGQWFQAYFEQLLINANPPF
T1 sequence (P62694 18-513): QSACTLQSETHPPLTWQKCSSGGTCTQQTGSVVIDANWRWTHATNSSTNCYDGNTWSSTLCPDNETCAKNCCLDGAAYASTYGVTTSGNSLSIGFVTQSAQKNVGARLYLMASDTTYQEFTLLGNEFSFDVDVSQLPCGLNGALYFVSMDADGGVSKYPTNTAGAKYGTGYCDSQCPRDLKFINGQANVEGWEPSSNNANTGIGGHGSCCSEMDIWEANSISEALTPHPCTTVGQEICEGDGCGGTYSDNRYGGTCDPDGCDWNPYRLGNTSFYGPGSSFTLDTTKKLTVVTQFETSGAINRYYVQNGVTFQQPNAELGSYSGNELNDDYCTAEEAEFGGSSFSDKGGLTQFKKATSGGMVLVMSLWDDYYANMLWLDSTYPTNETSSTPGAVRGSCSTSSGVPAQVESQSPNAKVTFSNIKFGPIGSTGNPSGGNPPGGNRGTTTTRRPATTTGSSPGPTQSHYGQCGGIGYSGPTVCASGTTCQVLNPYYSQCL

## O=C[C@H](O)[C@@H](O)[C@H](O[C@@H]1O[C@H](CO)[C@@H](O)[C@H](O)[C@H]1O)[C@H](O)CO [cellobiose, Cellobiose]
[1]; 35°C
  IC50: 580 ± 350 µM
[1]; 50°C
  IC50: 930 ± 100 µM
[2]
  IC50: 380 ± 30 µM
[3]
  IC50: 28000 ± 4500 µM
